Key:
Experiment in all cases: relative viability (nuclei count vs DMSO), 5 days (fraction); higher = more cells survive
Carfilzomib + Dasatinib = compound: CC(C)C[C@H](NC(=O)[C@H](CCc1ccccc1)NC(=O)CN1CCOCC1)C(=O)N[C@@H](Cc1ccccc1)C(=O)N[C@@H](CC(C)C)C(=O)[C@@]1(C)CO1 [Carfilzomib] + Cc1nc(Nc2ncc(C(=O)Nc3c(C)cccc3Cl)s2)cc(N2CCN(CCO)CC2)n1 [Dasatinib] (partner 0.075 µM)
Summary of the method: (§1)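 After 5 days of treatment, lung cancer cells in 1536-well plates were fixed and stained in a single step (final 0.05% Triton X-100, 1% formaldehyde, 1 ug/ml Hoechst) and their nuclei counted on 4× images. Treatment had been applied by pin tool the day after seeding as one drug alone or as a fixed anchor-drug dose with five library-drug doses (not always all listed) in √10 steps. Relative viability is the nuclei count of treated wells divided by that of vehicle wells, and values are medians of duplicate plates.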

Crizotinib + OSI-027 = compound: C[C@@H](Oc1cc(-c2cnn(C3CCNCC3)c2)cnc1N)c1c(Cl)ccc(F)c1Cl [Crizotinib] + COc1cccc2cc(-c3nc([C@H]4CC[C@H](C(=O)O)CC4)n4ncnc(N)c34)[nH]c12 [OSI-027] (partner 0.5 µM)
Summary of the method: as §1

Crizotinib + Pictilisib = compound: C[C@@H](Oc1cc(-c2cnn(C3CCNCC3)c2)cnc1N)c1c(Cl)ccc(F)c1Cl [Crizotinib] + CS(=O)(=O)N1CCN(Cc2cc3nc(-c4cccc5[nH]ncc45)nc(N4CCOCC4)c3s2)CC1 [Pictilisib] (partner 1 µM)
Summary of the method: as §1

Crizotinib + Vorinostat = compound: C[C@@H](Oc1cc(-c2cnn(C3CCNCC3)c2)cnc1N)c1c(Cl)ccc(F)c1Cl [Crizotinib] + O=C(CCCCCCC(=O)Nc1ccccc1)NO [Vorinostat] (partner 1 µM)
Summary of the method: as §1

| Cell Line | relative viability (Carfilzomib + Dasatinib; first compound 0.001 µM) | relative viability (Carfilzomib + Dasatinib; first compound 0.003162 µM) | relative viability (Carfilzomib + Dasatinib; first compound 0.01 µM) | relative viability (Carfilzomib + Dasatinib; first compound 0.03162 µM) | relative viability (Carfilzomib + Dasatinib; first compound 0.1 µM) | relative viability (Crizotinib + OSI-027; first compound 0.01 µM) | relative viability (Crizotinib + OSI-027; first compound 0.03162 µM) | relative viability (Crizotinib + OSI-027; first compound 0.1 µM) | relative viability (Crizotinib + OSI-027; first compound 0.3162 µM) | relative viability (Crizotinib + OSI-027; first compound 1 µM) | relative viability (Crizotinib + Pictilisib; first compound 0.01 µM) | relative viability (Crizotinib + Pictilisib; first compound 0.03162 µM) | relative viability (Crizotinib + Pictilisib; first compound 0.1 µM) | relative viability (Crizotinib + Pictilisib; first compound 0.3162 µM) | relative viability (Crizotinib + Pictilisib; first compound 1 µM) | relative viability (Crizotinib + Vorinostat; first compound 0.01 µM) | relative viability (Crizotinib + Vorinostat; first compound 0.03162 µM) | relative viability (Crizotinib + Vorinostat; first compound 0.1 µM) | relative viability (Crizotinib + Vorinostat; first compound 0.3162 µM) | relative viability (Crizotinib + Vorinostat; first compound 1 µM) |
| --- | --- | --- | --- | --- | --- | --- | --- | --- | --- | --- | --- | --- | --- | --- | --- | --- | --- | --- | --- | --- |
| NCI-H1666 | 0.812 | 0.878 | 0.817 | 0.568 | 0.352 | 0.8 | 0.893 | 0.837 | 0.903 | 0.855 | 0.483 | 0.484 | 0.325 | 0.553 | 0.3 | 1.14 | 0.999 | 1.07 | 0.978 | 0.955 |
| NCI-H1734 | 0.462 | 0.503 | 0.487 | 0.2 | 0.148 | 0.592 | 0.606 | 0.473 | – | 0.555 | 0.419 | 0.406 | 0.381 | – | 0.39 | 0.866 | 0.787 | 0.784 | – | 0.807 |
| NCI-H1755 | 0.428 | 0.45 | 0.479 | 0.365 | 0.263 | 0.678 | 0.716 | 0.625 | 0.531 | 0.644 | 0.413 | 0.485 | 0.444 | 0.309 | 0.437 | 0.668 | 0.779 | 0.743 | 0.757 | 0.764 |
| NCI-H1915 | 0.271 | 0.344 | 0.299 | 0.174 | 0.102 | 0.563 | 0.63 | 0.636 | – | 0.608 | 0.874 | 0.88 | 1.01 | – | 0.952 | 0.601 | 0.518 | 0.502 | 0.458 | 0.517 |
| NCI-H1944 | 0.214 | 0.233 | 0.186 | 0.203 | 0.135 | 0.396 | 0.421 | 0.402 | 0.391 | 0.397 | 0.322 | 0.341 | 0.328 | 0.344 | 0.343 | 0.446 | 0.508 | 0.493 | 0.571 | 0.54 |
| NCI-H1975 | – | 0.33 | 0.144 | 0.0922 | 0.107 | 0.72 | 0.812 | 0.755 | 0.754 | 0.721 | 0.28 | 0.294 | 0.308 | 0.344 | 0.266 | 0.682 | 0.693 | 0.695 | 0.708 | 0.729 |
| NCI-H1993 | 0.604 | 0.597 | 0.581 | 0.467 | 0.453 | 0.564 | 0.507 | 0.543 | 0.516 | 0.563 | 0.682 | 0.823 | 0.761 | 0.667 | 0.748 | 0.699 | 0.901 | 0.68 | 0.468 | 0.555 |
| NCI-H2009 | 0.293 | 0.386 | 0.3 | 0.113 | 0.0713 | 0.704 | 0.611 | 0.64 | 0.594 | 0.642 | 0.607 | 0.83 | 0.799 | 0.688 | 0.782 | 0.707 | 0.723 | 0.63 | 0.756 | 0.76 |
| NCI-H2023 | 0.569 | 0.698 | 0.59 | 0.181 | 0.082 | 0.354 | 0.438 | 0.359 | 0.297 | 0.329 | 0.225 | 0.232 | 0.189 | 0.192 | 0.217 | 0.573 | 0.8 | 0.568 | 0.453 | 0.621 |
| NCI-H2085 | 0.239 | 0.256 | 0.255 | 0.249 | 0.192 | 0.552 | 0.985 | 0.66 | – | 0.748 | 0.357 | 0.484 | 0.409 | 0.437 | 0.451 | 0.756 | 0.733 | – | 0.782 | 0.742 |
| NCI-H2087 | 0.781 | 0.994 | 0.465 | 0.0405 | 0.0695 | 0.442 | 0.611 | 0.548 | – | 0.327 | 0.693 | 0.909 | 0.953 | 0.42 | 0.943 | 0.679 | 0.689 | 0.766 | 0.94 | 0.731 |
| NCI-H2126 | 0.655 | 0.641 | 0.705 | 0.655 | 0.268 | 0.638 | 0.7 | 0.714 | 0.654 | 0.621 | 0.456 | 0.5 | 0.481 | 0.429 | 0.48 | 0.636 | 0.835 | 0.682 | 0.371 | – |
| NCI-H2170 | 0.56 | 0.519 | 0.832 | 0.352 | 0.237 | 0.775 | 0.839 | 0.741 | 0.573 | 0.691 | 0.316 | 0.315 | 0.286 | 0.277 | 0.292 | – | 0.838 | 0.746 | 0.795 | 0.828 |
| NCI-H2228 | 0.539 | 0.526 | 0.442 | 0.0721 | 0.0819 | 0.607 | 0.563 | 0.54 | 0.272 | 0.164 | 0.392 | 0.308 | 0.362 | 0.164 | 0.0922 | 0.46 | 0.843 | 0.402 | 0.57 | 0.683 |
| NCI-H2347 | 0.335 | – | 0.338 | 0.197 | 0.173 | 0.375 | 0.324 | 0.417 | 0.386 | 0.414 | 0.624 | 0.69 | 0.551 | 0.731 | 1.05 | 0.551 | 0.606 | 0.671 | 0.534 | 0.536 |
| NCI-H2405 | – | 0.218 | 0.203 | 0.247 | 0.188 | 0.636 | 0.605 | 0.587 | 0.669 | 0.593 | 0.457 | 0.526 | 0.419 | 0.37 | 0.356 | 0.955 | 1.01 | 1.08 | 0.535 | 0.959 |
| NCI-H3122 | 0.868 | 0.925 | 0.909 | 0.69 | 0.162 | 0.896 | 0.909 | 0.79 | 0.218 | 0.16 | 0.533 | 0.6 | 0.609 | 0.434 | 0.27 | 0.929 | 0.753 | 0.932 | 0.941 | 0.961 |
